Measured values published in article PMC5031696, “Synthesis, Biodistribution and In vitro Evaluation of Brain Permeable High Affinity Type 2 Cannabinoid Receptor Agonists [^11C]MA2 and [^18F]MA3” (Frontiers in Neuroscience, 2016).

Tests used:
[1] = biological target: T1, hCB2 (Homo sapiens, UniProt P34972); assay: functional cAMP assay, hCB2; assay type: cell-based
T1 construct: host or cells: CHO-K1 beta-arrestin cells
Description: (§1) CHO-K1 beta-arrestin cells (DiscoveRx, Fremont, CA) expressing hCB2, mouse CB2 (mCB2), and human CB1 (hCB1) were cultured in F-12 Nutrient Mixture (HAM) supplemented with 10% fetal bovine serum (FBS), 300 μg/mL hygromycin and 800 μg/mL geneticin (G418). Cells were incubated in a humidified atmosphere at 37°C with 5% CO2.
(§2) cAMP was measured using cAMP-Nano-TRF detection kit (Roche Diagnostics, Penzberg, Germany). Cells were seeded 17–24 h prior to the experiment 3 × 10^4 cells per well in a black 96-well plate with flat clear bottom (Corning, Wiesbaden, Germany) in growth medium and incubated in 5% CO2 at 37°C in a humidified incubator. The growth medium was exchanged with Krebs Ringer bicarbonate buffer with 1 mmol/L 3-isobutyl-1-methylxanthine (IBMX), 0.1% fatty acid-free bovine serum albumin (BSA) and incubated at 30°C for 60 min. Agonist was added to a final assay volume of 100 μL and the mixture was incubated for 30 min at 30°C. The assay was stopped by the addition of 50 μL 3x lysis reagent and shaken for 2 h at room temperature. The time-resolved energy transfer was measured using an LF502 Nanoscan FLT (IOM, Berlin, Germany), equipped with a laser as excitation source. cAMP content was determined from the function of a standard curve spanning from 10 to 0.13 nmol/L cAMP.

[2] = biological target: T2, mCB2 (Mus musculus, UniProt P47936); assay: functional cAMP assay, mCB2; assay type: cell-based; conditions: CHO-K1 cells expressing mCB2
T2 construct: host or cells: CHO-K1 beta-arrestin cells
Description: as §1, §2

[3] = biological target: T1, hCB2; assay: radioligand binding assay with [^3H]CP55940, hCB2
Description: as §1
(§3) Stably transfected cells were treated for 24 h with 5 mM butyrate in growth medium before harvesting, followed by homogenization in 15 mmol/L Hepes, 0.3 mmol/L EDTA, 1 mmol/L EGTA, 2 mmol/L MgCl2, complete EDTA-free protease inhibitor (Roche Applied Science, Rotkreuz, Switzerland), pH 7.4 using a glass potter and centrifugation at 47,800 g at 4°C for 30 min. The pellet was then rehomogenized twice in the same buffer and centrifuged (47,800 g, 4°C, 30 min). The final pellet was then resuspended in 75 mmol/L Tris, 0.3 mmol/L EDTA, 1 mmol/L EGTA, 12.5 mmol/L MgCl2, 250 mmol/L sucrose, pH 7.4 at a protein concentration of 1 to 3 mg/mL, aliquoted, frozen on dry ice and stored at −80°C. Saturation binding was performed with 0.05 to 2.6 nM [^3H]CP55940 (Perkin Elmer) and 1.0 μg of membrane protein. CP55940 (10 μM) was used to define non-specific binding. More than 95% of the total binding signal was specific. Assay buffer consisted of 50 mmol/L Tris-HCl, 5 mmol/L MgCl2, 2.5 mmol/L EGTA, and 0.1% fatty acid-free BSA, pH 7.4. Assays were initiated by addition of membranes in a final volume of 250 μL/well. Mixtures were incubated for 3 h at room temperature and then vacuum filtered and rinsed with wash buffer (50 mmol/L Tris-HCl, 5 mmol/L MgCl2, 2.5 mmol/L EGTA, and 0.5% fatty acid-free BSA, pH 7.4) on a Filtermate cell harvester through Packard GF/B filters presoaked in 0.3% polyethylenimine.
(§4) For competition binding, membrane preparations were incubated with 0.3 nM [^3H]CP55940 in the presence or absence of increasing concentrations of ligands for 60 min at 30°C in a final volume of 0.2 mL of 50 mmol/L Tris-HCl, 5 mmol/L MgCl2, 2.5 mmol/L EGTA, 0.1% fatty acid-free BSA, and 1% DMSO, pH 7.4, buffer, gently shaking. Non-specific binding was defined with 10 μM CP55940. All binding reactions were terminated by vacuum filtration onto 0.5% polyethylenimine presoaked GF/B filter plates (Packard) followed by seven brief washes with 2 mL of ice-cold binding buffer containing 0.5% fatty acid-free BSA. Plates were dried at 50°C for 1 h and liquid scintillation counting was used to determine bound radiolabel. IC50 values and Hill slopes were determined by a four parameter logistic model using ActivityBase (ID Business Solution, Guilford, UK). pKi values were determined by the generalized Cheng-Prusoff equation (Yung-Chi and Prusoff, [1973]).

[4] = biological target: T3, hCB1 (Homo sapiens, UniProt P21554); assay: functional cAMP assay, hCB1 versus hCB2; assay type: cell-based; conditions: cAMP assays
T3 construct: host or cells: CHO-K1 beta-arrestin cells
Description: as §1, §2

[5] = biological target: T2, mCB2; assay: radioligand binding assay with [^3H]CP55940, mCB2; conditions: competition with [^3H]CP55940; read-out: mCB2 Ki
Description: as §1, §3, §4

[6] = biological target: T3, hCB1; assay: radioligand binding assay with [^3H]CP55940, hCB1
Description: as §1, §3, §4

T2 sequence (P47936 whole entry): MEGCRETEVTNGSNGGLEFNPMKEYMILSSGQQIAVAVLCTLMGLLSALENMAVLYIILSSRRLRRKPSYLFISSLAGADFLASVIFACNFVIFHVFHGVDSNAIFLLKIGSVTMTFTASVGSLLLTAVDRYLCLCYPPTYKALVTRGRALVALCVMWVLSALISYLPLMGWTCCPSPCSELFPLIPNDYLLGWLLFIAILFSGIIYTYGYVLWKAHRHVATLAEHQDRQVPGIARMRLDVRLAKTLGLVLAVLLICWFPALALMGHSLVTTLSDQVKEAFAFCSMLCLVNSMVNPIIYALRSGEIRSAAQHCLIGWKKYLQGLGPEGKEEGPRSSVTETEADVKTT
T3 sequence (P21554 whole entry): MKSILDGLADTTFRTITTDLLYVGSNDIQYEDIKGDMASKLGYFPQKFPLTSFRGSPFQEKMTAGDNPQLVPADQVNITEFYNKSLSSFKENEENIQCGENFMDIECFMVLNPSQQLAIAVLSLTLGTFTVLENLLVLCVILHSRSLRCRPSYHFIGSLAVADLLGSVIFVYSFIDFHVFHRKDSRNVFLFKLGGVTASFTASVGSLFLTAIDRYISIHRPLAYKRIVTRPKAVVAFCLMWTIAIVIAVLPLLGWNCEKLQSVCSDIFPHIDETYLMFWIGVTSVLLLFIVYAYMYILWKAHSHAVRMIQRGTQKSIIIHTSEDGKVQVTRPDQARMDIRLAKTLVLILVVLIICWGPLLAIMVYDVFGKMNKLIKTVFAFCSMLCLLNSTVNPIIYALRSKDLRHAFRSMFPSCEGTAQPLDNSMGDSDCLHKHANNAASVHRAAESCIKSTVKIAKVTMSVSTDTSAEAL
T1 sequence (P34972 whole entry): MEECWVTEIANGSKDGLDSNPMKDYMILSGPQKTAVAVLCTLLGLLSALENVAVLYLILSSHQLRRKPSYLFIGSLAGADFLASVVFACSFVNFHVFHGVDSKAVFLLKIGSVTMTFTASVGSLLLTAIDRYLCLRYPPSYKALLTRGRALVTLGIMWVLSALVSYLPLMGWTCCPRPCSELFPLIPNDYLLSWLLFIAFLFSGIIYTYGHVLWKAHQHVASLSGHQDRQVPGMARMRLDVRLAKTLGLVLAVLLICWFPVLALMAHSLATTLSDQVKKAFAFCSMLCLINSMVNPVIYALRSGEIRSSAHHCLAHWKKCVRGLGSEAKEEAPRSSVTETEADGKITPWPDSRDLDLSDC

In the case of CCCCOc1c(OC)ccc2cc(C(=O)NC3CCCCC3)c(=O)[nH]c12 [NE40, reference compound], the “hCB2 cAMP % eff (efficacy)” value ([1]; CHO-K1 cells expressing hCB2) is reported as −178%, the EC50 ([1]; CHO-K1 cells expressing hCB2, read-out: hCB2 cAMP EC50) is reported as 8 nM and the “functional behaviour in cAMP assay” value ([1]; hCB2) is reported as “inverse agonist”. The “mCB2 cAMP % eff (efficacy)” value [2] was −128%, the EC50 ([2]; read-out: mCB2 cAMP EC50) was 11 nM and the Ki ([3]; competition with [^3H]CP55940, read-out: hCB2 Ki) was 4 nM. The “species difference in binding affinity” value ([3]; hCB2 versus mCB2) was “no species difference”, the “EC50 ratio hCB1/hCB2” value [4] was over 1250 and the Ki [5] was 2 nM. The Ki ([6]; competition with [^3H]CP55940, read-out: hCB1 Ki) was 1040 nM and the “Ki ratio hCB1/hCB2” value ([6]; selectivity) was 241.
